According to patent publication US6187800A, “Method for the prevention and treatment of mastitis” (Novartis Animal Health U.S., Inc., priority 1997, dated 2001):

Key:
[1] = test system: pathogens causing bovine mastitis; assay: Activity against mastitis pathogens (general statement); type: cell-based
[2] = Hydrophobicity and water solubility
[3] = test system: Bacillus cereus; assay: MIC, agar well diffusion method; type: cell-based; conditions: plate count agar +0.2% potato starch
Experimental: (§1) The minimal inhibitory concentrations (MIC) of micrococcin P1 against a panel of test organisms were determined using an agar well diffusion method. Agar plates were overlaid with soft agar seeded with the test organism. When the agar had solidified wells of 4 mm diameter were cut in the agar. 50 μl of a series of two fold dilutions of the peptide in citrate buffer pH4 were applied to the wells and the plates were kept at 4° C. for two hours prior to incubation at 37° C. overnight. The MIC was determined as the lowest concentration of peptide giving a clear zone of lysis around the well. Indicator strains were grown in Tryptose broth (Difco). M17 medium (Merck) was used for plates and soft agar with the following exceptions. For Pasteurella haemolytica, tryptose supplemented with 5% of toetal calf's serum was used. For Leuconostoc mesenteroides, plate count agar--Merck--, +15% saccharose was used, and for Bacillus cereus plate count agar +0.2% potato starch-Sigma 2004-) was used.

[4] = test system: E.coli; assay: MIC, agar well diffusion method; type: cell-based; conditions: 37° C. overnight
Experimental: as §1

[5] = test system: Leuconostoc mesenteroides; assay: MIC, agar well diffusion method; type: cell-based; conditions: plate count agar +15% saccharose
Experimental: as §1

[6] = test system: Listeria innocua; assay: MIC, agar well diffusion method; type: cell-based; conditions: 37° C. overnight
Experimental: as §1

[7] = test system: Micrococcus luteus; assay: MIC, agar well diffusion method; type: cell-based; conditions: 37° C. overnight
Experimental: as §1

[8] = test system: Pasteurella haemolytica; assay: MIC, agar well diffusion method; type: cell-based; conditions: tryptose + 5% foetal calf's serum
Experimental: as §1

[9] = test system: Staphylococcus aureus Newbould; assay: MIC, agar well diffusion method; type: cell-based; conditions: 37° C. overnight
Experimental: as §1

[10] = test system: Staphylococcus aureus V557; assay: MIC, agar well diffusion method; type: cell-based; conditions: 37° C. overnight
Experimental: as §1

[11] = test system: Streptococcus faecalis; assay: MIC, agar well diffusion method; type: cell-based; conditions: 37° C. overnight
Experimental: as §1

[12] = test system: Streptococcus uberis; assay: MIC, agar well diffusion method; type: cell-based; conditions: 37° C. overnight
Experimental: as §1

[13] = test system: Staphylococcus aureus; assay: Efficacy in subclinical bovine mastitis (experimentally infected quarters, intramammary treatment); type: in vivo, cows (bovine); conditions: n = 9
Source text: A dairy herd is maintained to supply candidate cows for enrollment in trials. Cows are bought from local cattle dealers. These cows should have a minimal milk production of 15 l/day. Two milk samples are taken one day apart from all quarters for bacteriological examination. No cows from which mastitis pathogens can be recovered are entered into the tests. Non-infected cows are selected based on non recovery of Staphylococcus aureus from two milk samples taken one day apart from all quarters. Then, 3 quarters are inoculated via the intramammary route using a suspension of Staphylococcus aureus. The 4th quarter serves as a control for the milking hygiene routines. During the two to four weeks after inoculation, milk samples are taken from all quarters, at least 3 times. These samples are cultured, and if Staphylococcus aureus is recovered from at least two of them, the quarter is considered infected.
Treatments are assigned randomly to infected quarters and injected via the intramammary route. Milk samples are taken daily until a minimum of 14 days after the last treatment. A quarter is considered to be cured if milk samples from that quarter become negative (i.e., no Staphylococcus aureus can be recovered) within 7 days after the last treatment and stay negative throughout the following 14 day sampling period.
This experimental model is used to have a fixed framework on which to evaluate treatments. To work with Staphylococcus aureus has the advantage that it is the most difficult Gram positive bacterium to treat and one of the most important bacteria causing bovine mastitis. Therefore, cure rates should be expected to be lower than for other Gram positive bacteria, such as Streptococci and coagulase-negative Staphylococci.
The results presented in Table 2 show the percentage of quarters positive for Staphylococcus aureus (i.e., quarters from which Staphylococcus aureus can be recovered) during and after treatment with 3 doses of either placebo, 2 mg micrococcin P1, or 300 mg ampiclox at 12 hour intervals, or 3 doses with 4 mg micrococcin P1 at 48 hour intervals.

[14] = test system: Lactobacillus bulgaricus; assay: Acidification of milk from treated cows by lactic fermenting bacteria; type: cell-based; conditions: 3 doses at 12 h
Source text: (§2) Acidification is the first and most important step in the manufacturing processes when milk is fermented. If acidification proceeds normally then it is very likely that all other steps will be normal. Therefore one can investigate the effect of different concentrations of micrococcin P1 on the kinetics of acidification of milk by lactic fermenting bacteria.
(§3) Cows that are free from infection with mastitis pathogens, based on bacteriological culture of milk, are enrolled in these trials. Identical treatments are administered to all 4 quarters of an individual cow. Milk from evening milkings is refrigerated at 4° C. overnight to be tested the following morning. Samples of 500 ml are pasteurized by heating to 80° C. in a waterbath and then cooled to room temperature.
(§4) Lyophylised cultures as used in commercial conditions are obtained from Rudolf Wittwer, CH-5002 Rombach, Aarau, Switzerland. These cultures are reconstituted according to manufacturers recommendations and reactivated by passage three times in sterile skimmed milk. Each passage is incubated for 16 to 18 hours at the optimum temperature for the said bacterial strain.
(§5) The culture obtained after the third passage is diluted to 2% with whole sterile (UHT) milk, aliquotted in 10 ml tubes and frozen at -20° C. for use in experiments.
(§6) The stock cultures prepared above are thawed at 40° C. then incubated overnight at 37° C. and used to inoculate test samples. The test samples are inoculated with 2% by volume of the experimental culture of the bacterial strain under test. The samples are then mixed and incubated for 24 hours at the optimal temperature for the particular bacterial strain under evaluation. The pH is measured each two hours during an eight hour period and again at 24 hours. The rate of acidification of milk containing different concentrations of active micrococcin P1 can then be compared to the negative controls.
(§7) The results given in tables 4 and 5 below have been obtained from cows receiving various amounts of micrococcin P1 on three occasions, at 12 hour intervals.

[15] = test system: Streptococcus thermophilus; assay: as above; type: cell-based; conditions: 3 doses at 12 h
Source text: as §2, §3, §4, §5, §6, §7

## C/C=C(\NC(=O)c1csc(-c2csc(-c3ccc4c(n3)-c3csc(n3)[C@H]([C@@H](C)O)NC(=O)c3csc(n3)[C@H](C(C)C)NC(=O)c3csc(n3)/C(=C/C)NC(=O)[C@H]([C@@H](C)O)NC(=O)c3csc-4n3)n2)n1)C(=O)NCC(C)=O [P2, micrococcin P2]
[1]
  activity against pathogens causing bovine mastitis: highly active against pathogens causing bovine mastitis
[2]
  hydrophobicity: highly hydrophobic
  solubility in water: poorly soluble in water

## micrococcin P1
[3]
  MIC: 0.24 µg/mL
[4]
  MIC: > 1000 µg/mL
[5]
  MIC: > 1000 µg/mL
[6]
  MIC: 1.95 µg/mL
[7]
  MIC: 0.015 µg/mL
[8]
  MIC: > 1000 µg/mL
[9]
  MIC: 0.24 µg/mL
[10]
  MIC: 1.91 µg/mL
[11]
  MIC: 1.98 µg/mL
[12]
  MIC: 1.49 µg/mL
[13]; 3 × 2 mg each 12 hours, day 0 after start of treatment
  % of quarters positive: 100.0%
[13]; 3 × 2 mg each 12 hours, day 1 after start of treatment
  % of quarters positive: 62.5%
[13]; 3 × 2 mg each 12 hours, day 2 after start of treatment
  % of quarters positive: 12.5%
[13]; 3 × 2 mg each 12 hours, day 3 after start of treatment
  % of quarters positive: 50.0%
[13]; 3 × 2 mg each 12 hours, day 4 after start of treatment
  % of quarters positive: 50.0%
[13]; 3 × 2 mg each 12 hours, day 5 after start of treatment
  % of quarters positive: 62.5%
[13]; 3 × 2 mg each 12 hours, day 7 after start of treatment
  % of quarters positive: 62.5%
[13]; 3 × 2 mg each 12 hours, day 8 after start of treatment
  % of quarters positive: 75.0%
[13]; 3 × 2 mg each 12 hours, day 9 after start of treatment
  % of quarters positive: 75.0%
[13]; 3 × 2 mg each 12 hours, day 10 after start of treatment
  % of quarters positive: 75.0%
[13]; 3 × 2 mg each 12 hours, day 11 after start of treatment
  % of quarters positive: 87.5%
[13]; 3 × 2 mg each 12 hours, day 12 after start of treatment
  % of quarters positive: 75.0%
[13]; 3 × 2 mg each 12 hours, day 14 after start of treatment
  % of quarters positive: 87.5%
[13]; 3 × 2 mg each 12 hours, day 15 after start of treatment
  % of quarters positive: 62.5%
[13]; 3 × 2 mg each 12 hours, day 16 after start of treatment
  % of quarters positive: 75.0%
[13]; 3 × 4 mg each 48 hours, day 0 after start of treatment
  % of quarters positive: 100%
[13]; 3 × 4 mg each 48 hours, day 1 after start of treatment
  % of quarters positive: 22%
[13]; 3 × 4 mg each 48 hours, day 2 after start of treatment
  % of quarters positive: 22%
[13]; 3 × 4 mg each 48 hours, day 3 after start of treatment
  % of quarters positive: 11%
[13]; 3 × 4 mg each 48 hours, day 4 after start of treatment
  % of quarters positive: 11%
[13]; 3 × 4 mg each 48 hours, day 5 after start of treatment
  % of quarters positive: 0%
[13]; 3 × 4 mg each 48 hours, day 7 after start of treatment
  % of quarters positive: 0%
[13]; 3 × 4 mg each 48 hours, day 8 after start of treatment
  % of quarters positive: 22%
[13]; 3 × 4 mg each 48 hours, day 9 after start of treatment
  % of quarters positive: 22%
[13]; 3 × 4 mg each 48 hours, day 10 after start of treatment
  % of quarters positive: 22%
[13]; 3 × 4 mg each 48 hours, day 11 after start of treatment
  % of quarters positive: 22%
[13]; 3 × 4 mg each 48 hours, day 12 after start of treatment
  % of quarters positive: 22%
[13]; 3 × 4 mg each 48 hours, day 14 after start of treatment
  % of quarters positive: 44%
[13]; 3 × 4 mg each 48 hours, day 15 after start of treatment
  % of quarters positive: 44%
[13]; 3 × 4 mg each 48 hours, day 16 after start of treatment
  % of quarters positive: 22%
[14]; 0.1 mg, 0 hours of growth
  pH (acidification of milk): 6.48
[14]; 0.1 mg, 2 hours of growth
  pH (acidification of milk): 5.73
[14]; 0.1 mg, 4 hours of growth
  pH (acidification of milk): 4.29
[14]; 0.1 mg, 6 hours of growth
  pH (acidification of milk): 3.89
[14]; 0.1 mg, 8 hours of growth
  pH (acidification of milk): 3.72
[14]; 0.1 mg, 24 hours of growth
  pH (acidification of milk): 3.51
[14]; 0.5 mg, 0 hours of growth
  pH (acidification of milk): 6.53
[14]; 0.5 mg, 2 hours of growth
  pH (acidification of milk): 5.36
[14]; 0.5 mg, 4 hours of growth
  pH (acidification of milk): 4.21
[14]; 0.5 mg, 6 hours of growth
  pH (acidification of milk): 3.85
[14]; 0.5 mg, 8 hours of growth
  pH (acidification of milk): 3.72
[14]; 0.5 mg, 24 hours of growth
  pH (acidification of milk): 3.47
[14]; 1 mg, 0 hours of growth
  pH (acidification of milk): 6.56
[14]; 1 mg, 2 hours of growth
  pH (acidification of milk): 5.83
[14]; 1 mg, 4 hours of growth
  pH (acidification of milk): 4.34
[14]; 1 mg, 6 hours of growth
  pH (acidification of milk): 3.94
[14]; 1 mg, 8 hours of growth
  pH (acidification of milk): 3.75
[14]; 1 mg, 24 hours of growth
  pH (acidification of milk): 3.50
[14]; 2 mg, 0 hours of growth
  pH (acidification of milk): 6.57
[14]; 2 mg, 2 hours of growth
  pH (acidification of milk): 5.69
[14]; 2 mg, 4 hours of growth
  pH (acidification of milk): 4.34
[14]; 2 mg, 6 hours of growth
  pH (acidification of milk): 3.92
[14]; 2 mg, 8 hours of growth
  pH (acidification of milk): 3.75
[14]; 2 mg, 24 hours of growth
  pH (acidification of milk): 3.49
[15]; 0.1 mg, 0 hours of growth
  pH (acidification of milk): 6.60
[15]; 0.1 mg, 2 hours of growth
  pH (acidification of milk): 6.03
[15]; 0.1 mg, 4 hours of growth
  pH (acidification of milk): 4.47
[15]; 0.1 mg, 6 hours of growth
  pH (acidification of milk): 4.08
[15]; 0.1 mg, 8 hours of growth
  pH (acidification of milk): 3.94
[15]; 0.1 mg, 24 hours of growth
  pH (acidification of milk): 3.52
[15]; 0.5 mg, 0 hours of growth
  pH (acidification of milk): 6.61
[15]; 0.5 mg, 2 hours of growth
  pH (acidification of milk): 6.04
[15]; 0.5 mg, 4 hours of growth
  pH (acidification of milk): 4.50
[15]; 0.5 mg, 6 hours of growth
  pH (acidification of milk): 4.13
[15]; 0.5 mg, 8 hours of growth
  pH (acidification of milk): 4.00
[15]; 0.5 mg, 24 hours of growth
  pH (acidification of milk): 3.51
[15]; 1 mg, 0 hours of growth
  pH (acidification of milk): 6.67
[15]; 1 mg, 2 hours of growth
  pH (acidification of milk): 6.20
[15]; 1 mg, 4 hours of growth
  pH (acidification of milk): 4.53
[15]; 1 mg, 6 hours of growth
  pH (acidification of milk): 4.11
[15]; 1 mg, 8 hours of growth
  pH (acidification of milk): 3.94
[15]; 1 mg, 24 hours of growth
  pH (acidification of milk): 3.48
[15]; 2 mg, 0 hours of growth
  pH (acidification of milk): 6.72
[15]; 2 mg, 2 hours of growth
  pH (acidification of milk): 6.33
[15]; 2 mg, 4 hours of growth
  pH (acidification of milk): 4.74
[15]; 2 mg, 6 hours of growth
  pH (acidification of milk): 4.25
[15]; 2 mg, 8 hours of growth
  pH (acidification of milk): 4.06
[15]; 2 mg, 24 hours of growth
  pH (acidification of milk): 3.57
[1]
  activity against pathogens causing bovine mastitis: highly active against pathogens causing bovine mastitis
[2]
  hydrophobicity: highly hydrophobic
  solubility in water: poorly soluble in water
